Measurements taken from patent US9981928B2, “Aryl sulfide derivatives and aryl sulfoxide derivatives as acaricides and insecticides” (BAYER CROPSCIENCE AKTIENGESELLSCHAFT, priority 2013, dated 2018).
Several values for one entry are separate records, joined by “and”; a condition that tells them apart may be missing. Equal entries are not always repeated. Where two headings read alike, the source gives them in different places.

How the values were obtained:
[1] = system: greenhouse red spider mite (Tetranychus urticae); experiment: Tetranychus urticae spray test, OP-resistant (TETRUR), bean leaf disks; assay type: in vivo; conditions: bean leaf disks, after 6 days
Protocol: Tetranychus urticae—Spray Test, OP-Resistant (TETRUR)
Solvent: 78.0 parts by weight of acetone
• 1.5 parts by weight of dimethylformamide Emulsifier: alkylaryl polyglycol ether
To produce a suitable preparation of active compound, 1 part by weight of active compound is dissolved using the stated parts by weight of solvent and made up with water containing an emulsifier concentration of 1000 ppm until the desired concentration is attained. To produce further test concentrations, the preparation is diluted with emulsifier-containing water.
disks of bean leaves (Phaseolus vulgaris) infested with all stages of the greenhouse red spider mite (Tetranychus urticae) are sprayed with an active compound preparation of the desired concentration.
After 6 days, the efficacy in % is determined. 100% means that all the spider mites have been killed; 0% means that none of the spider mites have been killed.

[2] = log P determination by HPLC on reversed-phase columns (C 18), analogously to OECD Guideline 117; assay type: physicochemical; conditions: for logP (HCOOH): LC-MS in the acidic range, pH 2.7, 0.1% aqueous formic acid / acetonitrile; for logP (HCOOH) / logP (neutral): HPLC reversed-phase C 18; for logP (neutral): LC-MS in the neutral range, pH 7.8, 0.001 molar aqueous ammonium hydrogencarbonate / acetonitrile
Protocol: The log P values were determined analogously to OECD Guideline 117 (EC Directive 92/69/EEC) by HPLC (high-performance liquid chromatography) using reversed-phase columns (C 18), by the following methods:
[a] The LC-MS determination in the acidic range was effected at pH 2.7 with 0.1% aqueous formic acid and acetonitrile (contains 0.1% formic acid) as eluents; linear gradient from 10% acetonitrile to 95% acetonitrile. log P^[a] is also referred to as log P(HCOOH). [b] LC-MS determination in the neutral range was effected at pH 7.8 with 0.001 molar aqueous ammonium hydrogencarbonate solution and acetonitrile as eluents; linear gradient from 10% acetonitrile to 95% acetonitrile. log P^[…] is also referred to as log P(neutral).

[3] = Tetranychus urticae, foliar, 144 h, application rate 500 g/ha, read-out: efficacy in %
[4] = reversed-phase C18 HPLC column, acidic range, pH 2.7, 0.1% aqueous formic acid and acetonitrile, read-out: log P[a] / log P(HCOOH)
[5] = reversed-phase C18 HPLC column, neutral range, pH 7.8, 0.001 molar aqueous ammonium hydrogencarbonate and acetonitrile, read-out: log P[b] / log P(neutral)
[6] = acidic range, pH 2.7, 0.1% aqueous formic acid and acetonitrile, read-out: log P[a] / log P(HCOOH)

SMILES	efficacy in % ([1]; application rate 500 g/ha)	logP (HCOOH) [2]	logP (neutral) [2]	further results
C=CCN1CC(=O)N(c2cc([S+]([O-])CC(F)(F)F)c(C)cc2F)C1=O (racemic) [Example 201]	100%	2.02	1.99	–
Cc1cc(F)c(N2C(=O)CSC2=NCC(C)(C)C)cc1SCC(F)(F)F [Example 113]	100%	4.84	4.73	–
Cc1cc(F)c(N2C(=O)N(C)C(=O)C2C)cc1[S+]([O-])CC(F)(F)F (stereo not drawn) [Example 213]	100%	1.91	–	–
CCn1c(=O)n(-c2cc(SCC(F)(F)F)c(C)cc2F)n(C(C)(C)C)c1=O [Example 142]	100%	4.19	4.13	–
Cc1cc(F)c(N2C(=O)N(C)C(=O)C2C)cc1SCC(F)(F)F (stereo not drawn) [Example 212]	90%	2.92	–	–
Cc1cc(F)c(N2C(=O)C(=O)N(CC(F)(F)F)C2=S)cc1SCC(F)(F)F [Example 189]	90%	3.95	–	–
Cc1cc(F)c(-n2c(=O)n(C3CC3)c(=O)n2C(C)C)cc1SCC(F)(F)F [Example 65]	100%	3.59	3.51	–
Cc1cc(F)c(-n2[nH]c(=O)n(C3CC3)c2=O)cc1SCC(F)(F)F [Example 66]	100%	2.30	0.69	–
Cc1cc(F)c(N2CCN(C)C2=O)cc1[S+]([O-])CC(F)(F)F (racemic) [Example 199]	100%	1.76	1.74	–
Cc1cc(F)c(N2CCNC2=O)cc1SCC(F)(F)F [Example 9, 1-{2-Fluoro-4-methyl-5-[(2,2,2-trifluoroethyl)sulfanyl]phenyl}imidazolidin-2-one]	–	–	–	pest or weed control at 500 g/ha [1, 3]: 90%; chromatographic logP [2, 4]: 2.36; chromatographic logP [2, 5]: 2.31
CCn1c(=O)n(C(C)(C)C)c(=O)n1-c1ccc(C)c(SCC(F)(F)F)c1 [Example 134]	100%	4.32	4.27	–
C=CCn1c(=O)n(CC(F)(F)F)n(-c2cc(SCC(F)(F)F)c(C)cc2F)c1=O [Example 154]	100%	3.62	3.64	–
CCC1(CC)C(=O)N(C)N(c2cc([S+]([O-])CC(F)(F)F)c(C)cc2F)C1=O (stereo not drawn) [Example 176]	100%	2.37	2.31	–
Cc1cc(F)c(-n2c(=O)n(C(C)(C)C)c(=O)n2CC(F)(F)F)cc1SCC(F)(F)F [Example 147]	100%	4.34	4.28	–
Cc1cc(F)c(-n2c(=O)n(CC(F)F)c(=O)n2CC(F)(F)F)cc1SCC(F)(F)F [Example 156]	90%	3.44	3.51	–
Cn1c(=O)n(C)n(-c2ccc(Br)c([S+]([O-])CC(F)(F)F)c2)c1=O (stereo not drawn) [Example 67]	100%	2.05	2.02	–
Cc1cc(F)c(N2C(=O)CSC2=NCC(C)(C)C)cc1[S+]([O-])CC(F)(F)F (racemic) [Example 114]	90%	3.66	3.63	–
Cc1cc(F)c(-n2c(=O)n(C)n(CC3CC3)c2=O)cc1SCC(F)(F)F [Example 126]	90%	3.15	–	–
Cc1cc(F)c(N2C(=O)N(C3CC3)C(=O)C2C)cc1[S+]([O-])CC(F)(F)F (stereo not drawn) [Example 215]	100%	2.15	–	–
Cc1cc(F)c(N2CCCC2=NCC(F)(F)F)cc1[S+]([O-])CC(F)(F)F (stereo not drawn) [Example 3, 2,2,2-Trifluoro-N-(1-{2-fluoro-4-methyl-5-[(2,2,2-trifluoroethyl)sulfinyl]phenyl}pyrrolidin-2-ylidene)ethanamine]	–	–	–	pest or weed control at 500 g/ha [1, 3]: 90%; chromatographic logP [2, 4]: 1.02; chromatographic logP [2, 5]: 2.88
Cc1ccc(-n2c(=O)n(C3CC3)c(=O)n2CC(C)C)cc1[S+]([O-])CC(F)(F)F (stereo not drawn) [Example 50]	90%	3.58	3.47	–

SMILES	efficacy in % ([1]; application rate 500 g/ha)	logP (HCOOH) [2]	logP (neutral) [2]	further results
Cn1c(=O)n(C)n(-c2ccc(Cl)c(SCC(F)(F)F)c2)c1=O [Example 31]	90%	2.72	2.69	–
CCCCN1CC(=O)N(c2cc([S+]([O-])CC(F)(F)F)c(C)cc2F)C1=O (stereo not drawn) [Example 203]	90%	2.47	2.43	–
Cc1cc(F)c(-n2[nH]c(=O)n(C)c2=O)cc1SCC(F)(F)F [Example 55]	90%	2.09	0.60	–
Cc1cc(F)c(N2C(=O)OC(C)(C)C2=O)cc1[S+]([O-])CC(F)(F)F (stereo not drawn) [Example 110, 3-[2-Fluoro-4-methyl-5-(2,2,2-trifluoroethylsulfinyl)phenyl]-5,5-dimethyloxazolidine-2,4-dione]	–	–	–	pest or weed control at 100 g/ha ([1]; Tetranychus urticae, foliar, 144 h, application rate 100 g/ha, read-out: efficacy in %): 100%; chromatographic logP [2, 4]: 2.38
Cn1c(=O)n(C2CC2)c(=O)n1-c1cc([S+]([O-])CC(F)(F)F)c(Br)cc1F (stereo not drawn) [Example 72]	90%	2.24	2.18	–
CCCn1c(=O)n(C)n(-c2cc(SCC(F)(F)F)c(C)cc2F)c1=O [Example 160]	–	3.28	3.22	efficacy in % ([1]; application rate 100 g/ha): 100%
Cc1cc(F)c(-n2c(=O)n(C3CC3)c(=O)n2CC(F)(F)F)cc1[S+]([O-])CC(F)(F)F (stereo not drawn) [Example 164]	90%	2.58	2.54	–
Cc1cc(F)c(N2C(=O)C(=O)N(C(C)(C)C)C2=S)cc1SCC(F)(F)F [Example 193]	100% and 90%	4.50	4.42	–
C=CCn1c(=O)n(-c2cc([S+]([O-])CC(F)(F)F)c(C)cc2F)c(=O)n1CC=C (racemic) [Example 120]	90%	2.46	–	–
C=CCn1c(=O)n(-c2cc([S+]([O-])CC(F)(F)F)c(C)cc2F)c(=O)n1C (racemic) [Example 124]	100%	2.00	–	–
CCn1c(=O)n(C(C)(C)C)c(=O)n1-c1cc(SCC(F)(F)F)c(C)cc1F [Example 99]	90%	4.21	4.16	–
C=CCOC(=O)Nc1cc(SCC(F)(F)F)c(C)cc1F [Allyl N-[2-fluoro-4-methyl-5-(2,2,2-trifluoroethylsulfanyl)phenyl]carbamate]	–	–	–	chromatographic logP [2, 6]: 3.59
CCn1[nH]c(=O)n(C(C)(C)C)c1=O [drawing 120 R1=CH2CH3 R10=C(CH3)3, 4-tert-butyl-1-ethyl-1,2,4-triazolidine-3,5-dione]	–	–	–	chromatographic logP [2, 4]: 1.15
O=[N+]([O-])c1ccc(Cl)c(SSc2cc([N+](=O)[O-])ccc2Cl)c1 [XIX-3, 1,1′-Disulfanediylbis(2-chloro-5-nitrobenzene)]	–	–	–	chromatographic logP [2, 6]: 3.31; chromatographic logP ([2]; neutral range, pH 7.8, 0.001 molar aqueous ammonium hydrogencarbonate and acetonitrile, read-out: log P[b] / log P(neutral)): 3.35
CC(C)n1[nH]c(=O)n(C)c1=O [drawing 120 R1=CH(CH3)2 R10=CH3, 1-isopropyl-4-methyl-1,2,4-triazolidine-3,5-dione]	–	–	–	chromatographic logP [2, 4]: 0.12
CCn1[nH]c(=O)n(CC)c1=O [1,4-Diethyl-1,2,4-triazolidine-3,5-dione]	–	–	–	chromatographic logP [2, 4]: 0.14
Cc1cc(F)c(-n2c(=O)[nH][nH]c2=O)cc1SCC(F)(F)F [4-{2-Fluoro-4-methyl-5-[(2,2,2-trifluoroethyl)sulfanyl]phenyl}-1,2,4-triazolidine-3,5-dione]	–	–	–	chromatographic logP [2, 4]: 1.82
Cc1cc(F)c(B2OC(C)(C)C(C)(C)O2)cc1SCC(F)(F)F [2-{2-Fluoro-4-methyl-5-[(2,2,2-trifluoroethyl)sulfanyl]phenyl}-4,4,5,5-tetramethyl-1,3,2-dioxaborolane]	–	–	–	chromatographic logP [2, 4]: 4.91; chromatographic logP [2, 5]: 4.81
CC(C)n1[nH]c(=O)n(C2CC2)c1=O [drawing 120 R1=CH(CH3)2 R10=cyclopropyl, 4-cyclopropyl-1-isopropyl-1,2,4-triazolidine-3,5-dione]	–	–	–	chromatographic logP [2, 4]: 0.5
Cc1cc(F)c(NC(=O)OCCCl)cc1SCC(F)(F)F [2-Chloroethyl N-[2-fluoro-4-methyl-5-(2,2,2-trifluoroethylsulfanyl)phenyl]carbamate]	–	–	–	chromatographic logP [2, 6]: 3.45
